Bounds are passed on as bounds.

In one data set the test system is A549. Kind of data set: MTT assay, antiproliferative activity against A549 cells. The data set is classed as cell-based. The settings on record: Homo sapiens, 72 h, mean of at least two determinations. The procedure, abridged: (§1)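 Cells grown in RPMI-1640 with 10% FBS at 37°C, 5% CO2, plated 24 h, then exposed to graded compound concentrations for 72 h. Viability read by MTT absorbance; IC50 is the concentration giving 50% absorbance inhibition versus untreated control.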

The subject of a further data set is HCT116. Briefly: MTT assay, antiproliferative activity against HCT116 cells. The data set is classed as cell-based. The settings on record: Homo sapiens, HCT-116, 72 h, mean of at least two determinations. A digest of the protocol: as §1
Another data set has as its system HL60. Briefly: MTT assay, antiproliferative activity against HL60 cells. The class given is cell-based. The settings on record: Homo sapiens, HL-60, 72 h, mean of at least two determinations. A digest of the protocol:
as §1
A general note: Tetrazolium assays rely on reduction of a dye to a coloured formazan, in cell work by metabolically active cells.

The target in the next data set is T1, recombinant human PI3Kα (Homo sapiens, UniProt P42336).
T1 construct: purchased Echelon Biosciences (Salt Lake City, UT, USA) E-2000
Kind of data set: Competitive fluorescence polarization (FP) assay, inhibition of PI3Kα. The data set is classed as biochemical. The settings on record: for Binding efficiency index (BEI): BEI = pIC50 (M)/MW (kDa), PI3Kα. Here is the method:
Selected compounds were then tested for their enzymatic inhibitory activity against PI3Kα using a competitive fluorescence polarization (FP) assay to determine the molecular target of synthesized compounds [21].
The PI3Kα inhibitory test was determined using a competitive fluorescence polarization kinase activity assay. PI3K fluorescence polarization assay kit (catalog No. K-1100) and recombinant human PI3Kα (catalog No. E-2000) were purchased from Echelon Biosciences (Salt Lake City, UT, USA). PI3K reactions were performed in 5 mM HEPES, Ph 7, 2.5 mM MgCl2, 10 mM DTT and 50 µM ATP, using diC8-phosphatidylinositol-4, 5-bisphosphate (PIP2) as the substrate, and the final reaction volumes were 10 µL. For evaluation of the PI3Kα inhibitory activity of target compounds, 50 ng enzyme and 10 µM substate were used per 10 µL reaction volume with the concentrations of inhibitors ranging from 3.2 nM to 10 µM. After incubating for 3 h at room temperature, reactions were quenched by adding chelators. A mixture of phosphoinositide binding protein was added and mixed, followed by the addition of a fluorophore-labeled phosphoinositide tracer. Samples were then mixed in 384-well black Corning nonbinding plates (Corning, NY, USA) and incubated in a dark environment for 1 h to equilibrate. Finally, polarization values were measure using red fluorophores with appropriate filters to determine the extent of enzyme activity in the reaction.
(In general: Fluorescence polarisation rises when a labelled molecule tumbles more slowly, as on binding a larger partner.)

The subject of the next data set is KB. Kind of data set: MTT assay, antiproliferative activity against KB cells. The data set is classed as cell-based. The settings on record: Homo sapiens, 72 h, mean of at least two determinations. The procedure, abridged: as §1
The test system of the next data set is PC3. Kind of data set: MTT assay, antiproliferative activity against PC3 cells. The class given is cell-based. The conditions noted are these: Homo sapiens, PC-3, 72 h, mean of at least two determinations. A digest of the protocol: as §1
Where [1] appears, read: FP assay, 50 µM ATP, mean of at least two determinations.

T1 sequence (P42336 whole entry): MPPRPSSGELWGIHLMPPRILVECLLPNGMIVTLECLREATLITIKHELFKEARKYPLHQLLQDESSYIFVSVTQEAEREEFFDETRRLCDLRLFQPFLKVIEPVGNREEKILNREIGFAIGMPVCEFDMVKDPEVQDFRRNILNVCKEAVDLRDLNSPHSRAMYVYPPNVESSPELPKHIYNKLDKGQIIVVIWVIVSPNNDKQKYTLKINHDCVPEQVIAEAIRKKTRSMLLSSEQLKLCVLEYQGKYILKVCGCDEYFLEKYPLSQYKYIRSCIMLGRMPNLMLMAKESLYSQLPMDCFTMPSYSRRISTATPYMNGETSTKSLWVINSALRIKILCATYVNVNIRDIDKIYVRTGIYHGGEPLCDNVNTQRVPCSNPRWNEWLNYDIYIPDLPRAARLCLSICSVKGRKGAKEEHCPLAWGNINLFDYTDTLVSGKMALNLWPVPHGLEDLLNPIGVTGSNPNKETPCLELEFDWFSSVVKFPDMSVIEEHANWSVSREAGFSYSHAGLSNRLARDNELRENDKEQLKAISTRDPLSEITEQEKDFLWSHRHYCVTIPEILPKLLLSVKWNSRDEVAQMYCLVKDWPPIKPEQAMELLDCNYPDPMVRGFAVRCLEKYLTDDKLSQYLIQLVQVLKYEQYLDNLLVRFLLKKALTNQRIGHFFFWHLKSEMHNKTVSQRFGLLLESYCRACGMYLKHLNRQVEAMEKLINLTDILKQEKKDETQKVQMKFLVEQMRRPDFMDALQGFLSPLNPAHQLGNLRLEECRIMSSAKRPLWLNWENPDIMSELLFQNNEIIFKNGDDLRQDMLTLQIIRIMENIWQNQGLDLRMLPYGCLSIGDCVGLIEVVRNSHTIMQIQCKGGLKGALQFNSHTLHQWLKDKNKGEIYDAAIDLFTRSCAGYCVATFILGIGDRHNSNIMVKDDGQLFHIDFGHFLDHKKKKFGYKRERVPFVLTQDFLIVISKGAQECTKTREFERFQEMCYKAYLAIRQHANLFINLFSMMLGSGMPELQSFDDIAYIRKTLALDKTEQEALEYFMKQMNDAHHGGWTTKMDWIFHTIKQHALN
T1 sequence (P27986 whole entry partner): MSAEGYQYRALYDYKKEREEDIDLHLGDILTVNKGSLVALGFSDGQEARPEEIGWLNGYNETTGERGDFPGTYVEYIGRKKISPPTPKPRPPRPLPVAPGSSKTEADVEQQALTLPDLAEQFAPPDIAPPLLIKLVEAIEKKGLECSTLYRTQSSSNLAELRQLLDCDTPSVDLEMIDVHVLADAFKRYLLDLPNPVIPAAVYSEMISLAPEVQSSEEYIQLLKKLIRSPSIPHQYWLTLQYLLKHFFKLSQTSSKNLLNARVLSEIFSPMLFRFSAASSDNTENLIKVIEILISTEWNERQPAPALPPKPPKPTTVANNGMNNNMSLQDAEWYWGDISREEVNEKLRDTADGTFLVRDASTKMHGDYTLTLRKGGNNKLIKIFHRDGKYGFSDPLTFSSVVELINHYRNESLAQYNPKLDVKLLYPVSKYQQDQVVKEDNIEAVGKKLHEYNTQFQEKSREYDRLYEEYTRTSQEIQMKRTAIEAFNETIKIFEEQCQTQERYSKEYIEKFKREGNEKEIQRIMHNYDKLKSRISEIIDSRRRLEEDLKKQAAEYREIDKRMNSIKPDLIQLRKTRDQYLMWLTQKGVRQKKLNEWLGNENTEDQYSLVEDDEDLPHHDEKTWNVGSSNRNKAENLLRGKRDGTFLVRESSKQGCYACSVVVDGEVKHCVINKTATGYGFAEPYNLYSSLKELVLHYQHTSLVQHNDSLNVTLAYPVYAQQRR

The IC50 is the concentration that inhibits the measured activity by half. For orientation: melting point means the temperature, or range, at which the solid turns liquid. Compound `COc1ccc(S(=O)(=O)c2nc3ccccc3nc2N2CCNC(C)C2)cc1` (stereo not shown) [Compound 26, 2-(3-Methylpiperazin-1-yl)-3-(4-methoxyphenylsulfonyl)quinoxaline] had a melting point of 130 to 133 °C. Also, half-maximal inhibition in the data set with A549 (IC50) was put at 1.65 µM. In the data set with HCT116, the IC50 turned out to be 0.54 µM. In the data set with HL60, this compound showed an IC50 of 0.16 µM. Further, the “Binding efficiency index (BEI)” value at recombinant human PI3Kα came out at 16.6. In addition, the IC50 on recombinant human PI3Kα (setting [1]) turned out to be 0.24 µM. Also, the IC50 at recombinant human PI3Kα (as used for BEI, Table 5) is 0.24 µM. The same compound gave an IC50 with KB of 8.53 µM. Also, the IC50 in the data set with PC3 was 0.93 µM.

Consider `CC1CN(c2nc3ccccc3nc2S(=O)(=O)c2ccc(Br)cc2)CCN1` (stereo not shown) [Compound 27, 2-(3-Methylpiperazin-1-yl)-3-(4-bromophenylsulfonyl)quinoxaline], for which the melting point fell in the range of 158 to 160 °C. The compound further had an IC50 in the data set on A549 of 0.57 µM. The compound also yielded an IC50 in the data set with HCT116 of 0.32 µM. This compound came in with an IC50 in the data set on HL60 of 0.12 µM. For the same compound, at recombinant human PI3Kα, the “Binding efficiency index (BEI)” value was found to be 16.1. Besides, the IC50 at recombinant human PI3Kα (setting [1]) came to 0.061 µM. Moreover, the IC50 on recombinant human PI3Kα (as used for BEI, Table 5) was 0.061 µM. For the same compound, the IC50 with KB was 9.46 µM. In addition, 0.6 µM corresponded to half-maximal inhibition in the data set on PC3 (IC50).

As to `O=C(c1ccccc1)N1CCN(c2nc3ccccc3nc2S(=O)(=O)c2ccccc2)CC1` [Compound 29, 2-(4-Benzoylpiperazin-1-yl)-3-(phenylsulfonyl)quinoxaline], the melting point was 224 to 226 °C. In the data set with A549, this compound displayed an IC50 of 5.2 µM. This compound displayed an IC50 in the data set with HCT116 of 42.4 µM. Besides, 7.2 µM corresponded to half-maximal inhibition in the data set on HL60 (IC50). The IC50 at recombinant human PI3Kα (setting [1]) was more than 10 µM. For the same compound, in the data set with KB, 1.22 µM corresponded to half-maximal inhibition (IC50). Further, 4.99 µM corresponded to half-maximal inhibition in the data set on PC3 (IC50).

In turn, `O=C(c1ccc(Cl)cc1)N1CCN(c2nc3ccccc3nc2S(=O)(=O)c2ccccc2)CC1` [Compound 34, 2-(4-(4-Chlorobenzoyl)piperazin-1-yl)-3-(phenylsulfonyl)quinoxaline] showed a melting point of 217 to 219 °C. This compound also came in with an IC50 in the data set with A549 of 3.86 µM. The same compound showed an IC50 in the data set with HCT116 of 25.4 µM. Further, in the data set on HL60, inhibition was half-maximal at 5.84 µM (IC50). On recombinant human PI3Kα, the “Binding efficiency index (BEI)” value amounted to 11.3. Moreover, the IC50 on recombinant human PI3Kα (setting [1]) is 2.75 µM. The IC50 in the data set with KB amounted to 0.93 µM. This compound registered an IC50 in the data set with PC3 of 2.74 µM.

`Cc1ccc(S(=O)(=O)N2CCN(c3nc4ccccc4nc3S(=O)(=O)c3ccccc3)CC2)cc1` [Compound 44, 2-(4-(4-Methylphenylsulfonyl)piperazin-1-yl)-3-(phenylsulfonyl)quinoxaline] showed a melting point of 161 to 163 °C. Besides, half-maximal inhibition in the data set with A549 (IC50) required 24.3 µM. In addition, in the data set with HCT116, the IC50 was determined as 7.49 µM. In the data set with HL60, this compound came in with an IC50 of 6.4 µM. Besides, the IC50 at recombinant human PI3Kα (setting [1]) was more than 10 µM. The compound also came in with an IC50 with KB of 3.08 µM. This compound gave an IC50 with PC3 of 2.19 µM.

For the origin of these results see publication PMC3419191, “Identification of Novel Piperazinylquinoxaline Derivatives as Potent Phosphoinositide 3-Kinase (PI3K) Inhibitors” (PLoS ONE, 2012).
